Data from patent US4145444A, “Anti-inflammatory agent of benzoyl derivative” (priority 1977, dated 1979).
Like-named read-outs stand apart in the source and are kept apart here.

Columns and labels:
thrombus = experiment: Inhibiting effect on thrombosis (by-pass between left juglar vein and right carotid artery, silk thread); format: in vivo, SD type male rates; conditions: Rattus norvegicus, read-out: Thrombosis inh.: thrombosis inhibition rate
How it was run: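 Arteriovenous shunt with silk thread and heparin saline, run as three successive 15-min circulations, with thrombus wet weight measured on the thread each time. Compound given orally in carboxymethyl cellulose suspension at 100 mg/kg 5 h before the first circulation. Inhibition rate derived against control circulations.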

platelet = experiment: Blood platelet aggregation inhibiting effect (collagen-induced); format: cell-based, rabbits; conditions: Oryctolagus cuniculus, Platelet; 10^-4 mole, collagen inducer, rabbit PRP; read-out: Blood platelet agg. inh.: percentage inhibition of platelet aggregation
Text: Male rabbits (Japan original white strain 3.3 to 3.6 kg) were anesthetized with Thiopental sodium and blood was sampled from the carotid artery.

in vivo = conditions: mouse, in vivo, po
Description: (§1) Each sample was dissolved in olive oil or dispersed in 1% Tween 20 aqueous solution.

hind paws of male rats = experiment: Anti-inflammatory effect: acute carragheenin edema method; format: in vivo; conditions: for inhibition in vivo at 100 mg/kg: read-out: Anti-inf.: edema inhibition rate; for anti-inflammatory effect, inhibition rate (ED50), in words: rat, in vivo
Description: The edema was induced by subcutaneous injection of 1% carragheenin suspension in saline to the hind paws of male rats weighting 150 to 180 g. Each sample was orally given at the dosage of 100 mg/kg just before the inoculation of carragheenin.

male mice [1] = experiment: Analgesic effect: painful stretchings following intraperitoneal 0.7% acetic acid; conditions: Mus musculus, po, read-out: Analgesic: percentage diminition of times of painful stretching
Description: Each sample was orally administered in the dosage of 100 mg/kg before injection of acetic acid.

[2] = tested on: adjuvant-induced arthritis; experiment: Chronic inflammation (adjuvant-induced arthritis): reduction in edema of the hind paws; format: in vivo, female rats of Sprague Drawley strain
Description: (§2) The effects of 1 4-n-butyl benzophenone and 2 4-n-butyl-2'-fluorobenzophenone against adjuvant-induced arthritis were studied.
(§3) For the study, adult female rats of Sprague Drawley strain weighing approximately 200 g were used. All rats received 0.1 ml of a suspension of dry heat-killed tubercle bacilli (human strains, commercial product of Difco Co.) in liquid paraffin (5 mg/ml, w/v) by a single intradermal injection into the tail.
The treatment of the animals by the test compounds were started fourteen days after injection of the adjuvant when arthritis developed sufficiently accompanying edema and erythema in paws. Each compound was orally given to animals daily for ten days. […] Phenylbutazone was used as the reference drug.
(§4) Evaluations were made using the following parameters.
(2) Relative reduction in edema of the hind paws.

[3] = Chronic inflammation (adjuvant-induced arthritis): body weight gain; format: in vivo, female rats of Sprague Drawley strain
Description: as §2, §3
The treatment of the animals by the test compounds were started fourteen days after injection of the adjuvant when arthritis developed sufficiently accompanying edema and erythema in paws. […] […] Phenylbutazone was used as the reference drug.
as §4

male mice [4] = experiment: in vivo; conditions: oral, male mice, within 72 hours (Table 2)
Description: as §1

[5] = 100 mg/kg oral, 5 hours before first blood circulation, rats
[6] = Rattus norvegicus, 100 mg/kg oral, carragheenin edema, male rats (Table 2)

Structure (SMILES)	inhibition in vivo at 100 mg/kg (thrombus; [5])	inhibition at 100 µM (platelet)	inhibition in vivo at 100 mg/kg (hind paws of male rats; [6])	inhibition in vivo at 100 mg/kg (male mice [1])	other results
Cc1cc(C)c(C(=O)c2ccccc2C)c(C)c1 [Active ingredient No. 3]	38.3%	17.3%	40%	11.3%	LD50 at 72 h (in vivo): 1500 mg/kg; ED50 (hind paws of male rats; Rattus norvegicus, oral, carragheenin edema, male rats (Table 2), read-out: 50% inhibition ED50 (values in brackets)): 290 mg/kg
CCCCCCc1ccc(C(=O)c2ccc(CCCC)cc2)cc1 [Active ingredient No. 5]	20.3%	15.3%	46.3%	12.1%	LD50 at 72 h (in vivo): 5000 mg/kg
CCCCCCc1ccc(C(=O)c2ccc(CCC)cc2)cc1 [Active ingredient No. 6]	15.9%	17.8%	44.2%	14.5%	LD50 at 72 h (in vivo): 5000 mg/kg
CCCCc1ccc(C(=O)c2ccccc2F)cc1 [Active ingredient No. 8, 4-n-butyl-2'-fluorobenzophenone]	–	–	–	–	anti-inflammatory effect, inhibition rate (ED50), in words (hind paws of male rats): especially high inhibition rate (ED50); Relative volume ratio of swelling in hind paws, average, 6 days ([2]; 50 mg/kg/day oral): 0.74; Relative volume ratio of swelling in hind paws, average, 10 days ([2]; 50 mg/kg/day oral): 0.76; Relative volume ratio of swelling in hind paws, average, 6 days ([2]; 100 mg/kg/day oral): 0.78; Relative volume ratio of swelling in hind paws, average, 10 days ([2]; 100 mg/kg/day oral): 0.73; Body weight gain, average, 0 days ([3]; 50 mg/kg/day oral): 222.6; Body weight gain, average, 6 days ([3]; 50 mg/kg/day oral): 223.0; Body weight gain, average, 10 days ([3]; 50 mg/kg/day oral): 232.0; Body weight gain, average, 0 days ([3]; 100 mg/kg/day oral): 211.8; Body weight gain, average, 6 days ([3]; 100 mg/kg/day oral): 205.8; Body weight gain, average, 10 days ([3]; 100 mg/kg/day oral): 214.4
CCCCc1ccc(C(=O)c2ccccc2)cc1 [Active ingredient No. 19, 4-n-butyl benzophenone]	–	–	–	–	anti-inflammatory effect, inhibition rate (ED50), in words (hind paws of male rats): especially high inhibition rate (ED50); Relative volume ratio of swelling in hind paws, average, 6 days ([2]; 100 mg/kg/day oral): 0.97; Relative volume ratio of swelling in hind paws, average, 10 days ([2]; 100 mg/kg/day oral): 1.02; Relative volume ratio of swelling in hind paws, average, 6 days ([2]; 200 mg/kg/day oral): 0.76; Relative volume ratio of swelling in hind paws, average, 10 days ([2]; 200 mg/kg/day oral): 0.75; Body weight gain, average, 0 days ([3]; 100 mg/kg/day oral): 229.2; Body weight gain, average, 6 days ([3]; 100 mg/kg/day oral): 217.5; Body weight gain, average, 10 days ([3]; 100 mg/kg/day oral): 218.2; Body weight gain, average, 0 days ([3]; 200 mg/kg/day oral): 214.1; Body weight gain, average, 6 days ([3]; 200 mg/kg/day oral): 213.3; Body weight gain, average, 10 days ([3]; 200 mg/kg/day oral): 220.1
CCCCC1C(=O)N(c2ccccc2)N(c2ccccc2)C1=O [Phenylbutazone, reference compound]	–	–	–	–	Relative volume ratio of swelling in hind paws, average, 6 days ([2]; 50 mg/kg/day oral): 0.75; Relative volume ratio of swelling in hind paws, average, 10 days ([2]; 50 mg/kg/day oral): 0.75; Body weight gain, average, 0 days ([3]; 50 mg/kg/day oral): 215.6; Body weight gain, average, 6 days ([3]; 50 mg/kg/day oral): 207.7; Body weight gain, average, 10 days ([3]; 50 mg/kg/day oral): 214.3
COc1ccc(C(=O)c2ccccc2)cc1 [compound 28]	–	20.4%	–	4.2%	inhibition in vivo at 100 mg/kg (thrombus; po, 5 h): 7.3%; Acute toxicity LD50 (male mice [4]): > 10000 mg/kg; inhibition in vivo at 100 mg/kg (hind paws of male rats; Rattus norvegicus, po): 44.1%
CCc1ccc(C(=O)c2ccc(CC)cc2)cc1 [compound 106]	20.2%	20.3%	26.4%	7.3%	–
CCc1ccc(C(=O)c2ccc(OC)cc2)cc1 [compound 107]	19.6%	20.3%	–	13.2%	inhibition in vivo at 100 mg/kg (hind paws of male rats; Rattus norvegicus, po): 20.3%
Cc1cc(C)c(C(=O)c2ccc(O)cc2)c(C)c1 [compound 108]	34.7%	28.4%	10.5%	3.1%	–
O=C(c1ccccc1)c1ccc(O)cc1 [compound 109]	20.3%	13.7%	12.7%	2.6%	–
CCCc1ccc(C(=O)c2ccc(CCC)cc2)cc1 [compound 110]	18.6%	20.5%	17%	10.5%	–
CCCCCc1ccc(C(=O)c2ccc(CCCCC)cc2)cc1 [compound 111]	17.3%	10.3%	20.6%	11.3%	–
CCCc1ccc(C(=O)c2ccc(CC)cc2)cc1 [compound 112]	15.5%	11.8%	14.1%	6.7%	–
O=C(c1ccccc1)c1ccccc1C(=O)c1ccccc1 [compound 113]	30.4%	25.8%	38.7%	14.5%	–
O=C(c1ccc(F)cc1)c1ccc(F)cc1 [compound 114]	31.1%	26.8%	33.2%	18.3%	–
O=C(c1ccc(F)cc1)c1ccccc1Cl [compound 115]	27.5%	25.4%	14.5%	11.8%	–
